“Also recorded” adds a separate entry of the source. Where two headings read alike, the source gives them in different places. Some results are limits rather than exact numbers.

The subject of data set [1] is VSV-S (pseudotyped VSV carrying the S protein of Wuhan-Hu-1 SARS-CoV-2). Kind of data set: microbe, parasite or virus in culture. In kind it is cell-based.
Data set [2] shares this test system. In words: microbe, parasite or virus in culture. In kind it is cell-based. Particulars: read-out: IC50 (concentration at which virus infection is reduced by 50%), VSV-S in A549-ACE2-TMPRSS2 cells.
Data set [3] in a line: in vitro. The note with it: African green monkey.
Data set [4] in a line: in vitro. Particulars: human.
Data set [5] deals with SARS-CoV-2 RBD (Severe acute respiratory syndrome coronavirus 2, UniProt P0DTC2). In kind it is binding.
Setting [6] is: Vesicular stomatitis virus, Vero C1008, read-out: IC50 (concentration at which virus infection is reduced by 50%), VSV-S in Vero E6 cells.
Setting [7] is: read-out: IC50 (concentration at which virus infection is reduced by 50%), VSV-S in Vero E6 cells.

`O=C(CCOCC(COCCC(=O)NC(Cc1c(Sc2ccc([N+](=O)[O-])cc2)[nH]c2ccccc12)C(=O)O)(COCCC(=O)NC(Cc1c(Sc2ccc([N+](=O)[O-])cc2)[nH]c2ccccc12)C(=O)O)COCCC(=O)NC(Cc1c(Sc2ccc([N+](=O)[O-])cc2)[nH]c2ccccc12)C(=O)O)NC(Cc1c(Sc2ccc([N+](=O)[O-])cc2)[nH]c2ccccc12)C(=O)O` (centres unmarked) [Compound 1]: the “primary HTS screening result (in words)” value in data set [1] was “significant antiviral activity in the absence of cytotoxicity”. Also, the IC50 turned out to be 21.4 ± 9.45 µM in data set [1] (setting [6]), 21.4 ± 9.5 µM in data set [1] (setting [7]) and 18.5 ± 3.5 µM in data set [2] (Vesicular stomatitis virus). Also, the CC50 in data set [3] and in data set [4] was over 100 µM throughout.
With `O=C(CCC(CCC(=O)NC(Cc1c(Sc2ccc([N+](=O)[O-])cc2)[nH]c2ccccc12)C(=O)O)(CCC(=O)NC(Cc1c(Sc2ccc([N+](=O)[O-])cc2)[nH]c2ccccc12)C(=O)O)[N+](=O)[O-])NC(Cc1c(Sc2ccc([N+](=O)[O-])cc2)[nH]c2ccccc12)C(=O)O` (centres unmarked) [Compound 3], the “primary HTS screening result (in words)” value in data set [1] is listed as “effective”. The IC50 in data set [1] (setting [6]) was 32.9 ± 4.48 µM; in data set [1] (setting [7]), 32.9 ± 4.5 µM. For the same compound, in data set [3], the CC50 was over 100 µM.
In the case of `NCC(=O)NC(CCC(=O)NC(Cc1c(Sc2ccccc2[N+](=O)[O-])[nH]c2ccccc12)C(=O)O)(CCC(=O)NC(Cc1c(Sc2ccccc2[N+](=O)[O-])[nH]c2ccccc12)C(=O)O)CCC(=O)NC(Cc1c(Sc2ccccc2[N+](=O)[O-])[nH]c2ccccc12)C(=O)O` (centres unmarked) [Compound 36], the IC50 in data set [1] (setting [6]) is over 100 µM.
As for `NCC(=O)NC(CCC(=O)NC(Cc1c(Sc2cccc([N+](=O)[O-])c2)[nH]c2ccccc12)C(=O)O)(CCC(=O)NC(Cc1c(Sc2cccc([N+](=O)[O-])c2)[nH]c2ccccc12)C(=O)O)CCC(=O)NC(Cc1c(Sc2cccc([N+](=O)[O-])c2)[nH]c2ccccc12)C(=O)O` (centres unmarked) [Compound 37], the IC50 in data set [1] (setting [6]) stood at 37.1 ± 15.9 µM; in data set [2] (Vesicular stomatitis virus), 8.6 ± 4.7 µM. The CC50 in data set [3] and in data set [4] was over 100 µM each time.
With `NCC(=O)NC(CCC(=O)NC(Cc1c(Sc2ccc(C(F)(F)F)cc2)[nH]c2ccccc12)C(=O)O)(CCC(=O)NC(Cc1c(Sc2ccc(C(F)(F)F)cc2)[nH]c2ccccc12)C(=O)O)CCC(=O)NC(Cc1c(Sc2ccc(C(F)(F)F)cc2)[nH]c2ccccc12)C(=O)O` (centres unmarked) [Compound 38], the IC50 in data set [1] (setting [6]) was determined as 27.6 ± 12.6 µM; in data set [2] (Vesicular stomatitis virus), 11.6 ± 4.8 µM. In data set [5], the “effect on thermofluor fluorescence profile / thermal stability of RBD (in words)” value was “shift of the curve toward lower temperatures”. In addition, the CC50 in data set [3] and in data set [4] was over 100 µM throughout.
With `N#Cc1ccc(Sc2[nH]c3ccccc3c2CC(NC(=O)CCC(CCC(=O)NC(Cc2c(Sc3ccc(C#N)cc3)[nH]c3ccccc23)C(=O)O)(CCC(=O)NC(Cc2c(Sc3ccc(C#N)cc3)[nH]c3ccccc23)C(=O)O)NC(=O)CN)C(=O)O)cc1` (centres unmarked) [Compound 39], the IC50 in data set [1] (setting [6]) is 33.6 ± 7.2 µM; in data set [2] (Vesicular stomatitis virus), 34.9 ± 8.7 µM. Further, the CC50 in data set [3] and in data set [4] was over 100 µM throughout.
For `NCC(=O)NC(CCC(=O)NC(Cc1c(Sc2ccc(F)cc2)[nH]c2ccccc12)C(=O)O)(CCC(=O)NC(Cc1c(Sc2ccc(F)cc2)[nH]c2ccccc12)C(=O)O)CCC(=O)NC(Cc1c(Sc2ccc(F)cc2)[nH]c2ccccc12)C(=O)O` (centres unmarked) [Compound 40], the IC50 in data set [1] (setting [6]) turned out to be 33 ± 1.3 µM; in data set [2] (Vesicular stomatitis virus), 46.9 ± 17.5 µM. The CC50 in data set [3] and in data set [4] was over 100 µM throughout.
As for `CC(=O)c1ccc(Sc2[nH]c3ccccc3c2CC(NC(=O)CCC(CCC(=O)NC(Cc2c(Sc3ccc(C(C)=O)cc3)[nH]c3ccccc23)C(=O)O)(CCC(=O)NC(Cc2c(Sc3ccc(C(C)=O)cc3)[nH]c3ccccc23)C(=O)O)NC(=O)CN)C(=O)O)cc1` (centres unmarked) [Compound 41], the IC50 was about 2 µM in data set [1] (setting [6]), 3 ± 1.9 µM in data set [1] (setting [7]), about 2 µM in data set [2] (Vesicular stomatitis virus) and 2.3 ± 1.7 µM in data set [2]. The “effect on thermofluor fluorescence profile / thermal stability of RBD (in words)” value in data set [5] is “shift of the curve toward lower temperatures; also recorded: thermally destabilized the RBD”. Also, the CC50 in data set [3] and in data set [4] was over 100 µM each time.
Consider `NCC(=O)NC(CCC(=O)NC(Cc1c(-c2ccc([N+](=O)[O-])cc2)[nH]c2ccccc12)C(=O)O)(CCC(=O)NC(Cc1c(-c2ccc([N+](=O)[O-])cc2)[nH]c2ccccc12)C(=O)O)CCC(=O)NC(Cc1c(-c2ccc([N+](=O)[O-])cc2)[nH]c2ccccc12)C(=O)O` (centres unmarked) [Compound 46], for which the “antiviral activity in the VSV-S assay (in words)” value in data set [1] is on record as “antiviral activity is also lost”. Also, the IC50 in data set [1] (setting [6]) is over 50 µM.
As to `NCC(=O)NC(CCC(=O)NC(Cc1c(C(=O)c2ccc([N+](=O)[O-])cc2)[nH]c2ccccc12)C(=O)O)(CCC(=O)NC(Cc1c(C(=O)c2ccc([N+](=O)[O-])cc2)[nH]c2ccccc12)C(=O)O)CCC(=O)NC(Cc1c(C(=O)c2ccc([N+](=O)[O-])cc2)[nH]c2ccccc12)C(=O)O` (centres unmarked) [Compound 50], in data set [1], the “antiviral activity in the VSV-S assay (in words)” value is “antiviral activity is also lost”. For the same compound, the IC50 in data set [1] (setting [6]) is over 50 µM.
With `CCCCCC(=O)NCC(=O)NC(CCC(=O)NC(Cc1c(Sc2ccc([N+](=O)[O-])cc2)[nH]c2ccccc12)C(=O)O)(CCC(=O)NC(Cc1c(Sc2ccc([N+](=O)[O-])cc2)[nH]c2ccccc12)C(=O)O)CCC(=O)NC(Cc1c(Sc2ccc([N+](=O)[O-])cc2)[nH]c2ccccc12)C(=O)O` (centres unmarked) [Compound 56], the IC50 in data set [1] (setting [6]) is 18.9 ± 6.8 µM; in data set [2] (Vesicular stomatitis virus) it was 8.3 ± 1.1 µM. Moreover, the CC50 in data set [3] and in data set [4] was over 100 µM each time.
With `CCCCCCCC(=O)NCC(=O)NC(CCC(=O)NC(Cc1c(Sc2ccc([N+](=O)[O-])cc2)[nH]c2ccccc12)C(=O)O)(CCC(=O)NC(Cc1c(Sc2ccc([N+](=O)[O-])cc2)[nH]c2ccccc12)C(=O)O)CCC(=O)NC(Cc1c(Sc2ccc([N+](=O)[O-])cc2)[nH]c2ccccc12)C(=O)O` (centres unmarked) [Compound 57], the IC50 in data set [1] (setting [6]) was determined as 23.5 ± 3.8 µM; in data set [2] (Vesicular stomatitis virus) it was 11.1 ± 5 µM. In addition, the “effect on thermofluor fluorescence profile / thermal stability of RBD (in words)” value in data set [5] is given as “shift of the curve toward lower temperatures”. Besides, the CC50 in data set [3] and in data set [4] was over 100 µM in each case.
With `CCCCCCCCCC(=O)NCC(=O)NC(CCC(=O)NC(Cc1c(Sc2ccc([N+](=O)[O-])cc2)[nH]c2ccccc12)C(=O)O)(CCC(=O)NC(Cc1c(Sc2ccc([N+](=O)[O-])cc2)[nH]c2ccccc12)C(=O)O)CCC(=O)NC(Cc1c(Sc2ccc([N+](=O)[O-])cc2)[nH]c2ccccc12)C(=O)O` (centres unmarked) [Compound 58], the IC50 in data set [1] (setting [6]) turned out to be 21 ± 8.7 µM; in data set [2] (Vesicular stomatitis virus), 9.8 ± 4.3 µM. In addition, the CC50 in data set [3] and in data set [4] was over 100 µM each time.
`CCCCCCCCCCCC(=O)NCC(=O)NC(CCC(=O)NC(Cc1c(Sc2ccc([N+](=O)[O-])cc2)[nH]c2ccccc12)C(=O)O)(CCC(=O)NC(Cc1c(Sc2ccc([N+](=O)[O-])cc2)[nH]c2ccccc12)C(=O)O)CCC(=O)NC(Cc1c(Sc2ccc([N+](=O)[O-])cc2)[nH]c2ccccc12)C(=O)O` (centres unmarked) [Compound 59]: the IC50 came out at 30.3 ± 5.3 µM in data set [1] (setting [6]) and 44.4 ± 23.4 µM in data set [2] (Vesicular stomatitis virus). Moreover, the CC50 in data set [3] and in data set [4] was over 100 µM throughout.

The values are drawn from PMC10424185, “C-2 Thiophenyl Tryptophan Trimers Inhibit Cellular Entry of SARS-CoV-2 through Interaction with the Viral Spike (S) Protein” (Journal of Medicinal Chemistry, 2023).
